From PMC6724197 (Journal of chemical ecology, 2018)

Tests used:
[1] = system: mountain cottontails (Sylvilagus nuttallii); assay: Two-choice feeding trial: single monoterpene diet vs monoterpene mixture diet; type: in vivo
[2] = system: pygmy rabbits (Brachylagus idahoensis); assay: as above; type: in vivo; details: for percentage of single monoterpene in the diet relative to monoterpene mixture: pygmy rabbits
digestive enzyme = details: in a generalist more than in a specialist avian folivore; ref Kohl et al. 2015; cited from earlier work

Structure (SMILES)	amount of single monoterpene diet consumed relative to monoterpene mixture [1]	percentage of single monoterpene in the diet relative to monoterpene mixture [2]	effect on digestive enzyme activity (digestive enzyme)	amount of monoterpene mixture consumed relative to single monoterpene diet [1]	proportion consumed by pygmy rabbits relative to cottontails ([2]; pygmy rabbits vs mountain cottontails)
CC12CCC(CC1)C(C)(C)O2 [1,8-cineole]	24 times	twice	–	–	–
C=C1C2CCC(C2)C1(C)C (centres unmarked) [camphene]	more than five times	–	–	–	–
CC12CCC(CC1=O)C2(C)C (centres unmarked) [camphor]	–	twice	reduced digestive enzyme activity	twice	twice
C=C1CCC2CC1C2(C)C (stereo not drawn) [β-pinene]	–	–	–	three times	–
